From the supplement of paper PMC10307832

How the values were obtained:
Assay in all cases: relative viability (nuclei count vs DMSO), 5 days (fraction); higher = more cells survive
IMD-0354 + Lapatinib = compound: O=C(Nc1cc(C(F)(F)F)cc(C(F)(F)F)c1)c1cc(Cl)ccc1O [IMD-0354] + CS(=O)(=O)CCNCc1ccc(-c2ccc3ncnc(Nc4ccc(OCc5cccc(F)c5)c(Cl)c4)c3c2)o1 [Lapatinib] (partner 2 µM)
Outline: (§1)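 Relative viability is defined as nuclei in treated wells over nuclei in vehicle wells. Duplicate plates were run and medians reported. Lung cancer cell lines in 1536-well plates were dosed by pin tool one day after seeding, with one drug or with a fixed anchor-drug dose plus five library-drug doses (not always all listed) in √10 steps, and nuclei were counted after 5 days.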

IMD-0354 + AZD7762 = compound: O=C(Nc1cc(C(F)(F)F)cc(C(F)(F)F)c1)c1cc(Cl)ccc1O [IMD-0354] + NC(=O)Nc1cc(-c2cccc(F)c2)sc1C(=O)N[C@H]1CCCNC1 [AZD7762] (partner 0.2 µM)
Outline: as §1

IMD-0354 + Luminespib = compound: O=C(Nc1cc(C(F)(F)F)cc(C(F)(F)F)c1)c1cc(Cl)ccc1O [IMD-0354] + CCNC(=O)c1noc(-c2cc(C(C)C)c(O)cc2O)c1-c1ccc(CN2CCOCC2)cc1 [Luminespib] (partner 0.01 µM)
Outline: as §1

CX-5461 + OSI-027 = compound: Cc1cnc(CNC(=O)c2c(=O)c3ccc(N4CCCN(C)CC4)nc3n3c2sc2ccccc23)cn1 [CX-5461] + COc1cccc2cc(-c3nc([C@H]4CC[C@H](C(=O)O)CC4)n4ncnc(N)c34)[nH]c12 [OSI-027] (partner 0.5 µM)
Outline: as §1

Cell Line	relative viability (IMD-0354 + Lapatinib; first compound 0.04 µM)	relative viability (IMD-0354 + Lapatinib; first compound 0.1265 µM)	relative viability (IMD-0354 + Lapatinib; first compound 0.4 µM)	relative viability (IMD-0354 + Lapatinib; first compound 1.265 µM)	relative viability (IMD-0354 + Lapatinib; first compound 4 µM)	relative viability (IMD-0354 + AZD7762; first compound 0.04 µM)	relative viability (IMD-0354 + AZD7762; first compound 0.1265 µM)	relative viability (IMD-0354 + AZD7762; first compound 0.4 µM)	relative viability (IMD-0354 + AZD7762; first compound 1.265 µM)	relative viability (IMD-0354 + AZD7762; first compound 4 µM)	relative viability (IMD-0354 + Luminespib; first compound 0.04 µM)	relative viability (IMD-0354 + Luminespib; first compound 0.1265 µM)	relative viability (IMD-0354 + Luminespib; first compound 0.4 µM)	relative viability (IMD-0354 + Luminespib; first compound 1.265 µM)	relative viability (IMD-0354 + Luminespib; first compound 4 µM)	relative viability (CX-5461 + OSI-027; first compound 0.01 µM)	relative viability (CX-5461 + OSI-027; first compound 0.03162 µM)	relative viability (CX-5461 + OSI-027; first compound 0.1 µM)	relative viability (CX-5461 + OSI-027; first compound 1 µM)	relative viability (CX-5461 + OSI-027; first compound 0.3162 µM)
HARA	0.792	0.752	0.432	0.11	0.198	0.281	0.357	0.38	0.177	0.141	0.863	0.689	0.37	0.16	0.125	0.616	0.572	0.423	0.319	
HCC-15	0.837	0.824	0.383	0.241	0.127	1.07	1.13	0.923	0.648	0.157	0.236	0.257	0.275	0.104	0.0925	0.692	0.71	0.66	0.253	0.554
HCC-44	0.976	1.08	0.408	0.23	0.206	0.988	1.01	1.01	0.855	0.314	0.737	1.1	0.786	0.311	0.239	0.564	0.623	0.6	0.366	0.51
HCC-827	0.195	0.187	0.186	0.168	0.145	0.204	0.239	0.215	0.183	0.153	0.686	0.589	0.589	0.235	0.129	0.838	0.828	0.79	0.735	0.757
HOP-62	0.974	1.13	0.603	0.662	0.0827	0.741	0.977	0.473	0.327	0.176	0.998	0.864	0.53	0.509	0.166	0.824	0.941	0.83	0.594	0.93
LC-2-ad	0.947	0.924	0.354	0.192	0.116	0.902	0.85	0.504	0.15	0.24	1.01	0.87	0.674	0.312	0.226	0.919	0.866	0.705	0.546	0.718
LCLC-97TM1		0.792	0.419	0.27	0.144	0.315	0.449	0.222	0.185	0.128	0.735	0.705	0.529	0.251	0.148	0.483	0.591	0.49	0.484	
LK-2	1.14	0.9	0.545	0.844	0.288	0.251	0.39		0.105	0.172	0.195	0.194	0.184	0.195	0.167	0.268	0.173	0.185	0.179	0.162
LOU-NH91	0.85	0.804	0.337	0.226	0.222	0.827	0.672	0.284	0.151	0.266	0.348	0.334	0.32	0.176	0.213	0.756	0.728	0.714	0.727	
LU99A	0.708	0.952	0.604	0.247	0.165	0.246	0.393	0.332	0.185	0.151	0.214	0.264	0.221	0.196	0.201	0.338	0.295	0.333	0.258	0.257
LXF-289	0.948	0.895	0.835	0.301	0.188	1.07	1.09	0.866	0.345	0.133	0.796	0.66	0.564	0.508	0.192	0.755	0.924	0.892	0.581	0.416
NCI-H23	0.996	1.14	0.475	0.183	0.237	0.252	0.253	0.229	0.13	0.222	0.299	0.212	0.247	0.178	0.145	0.672	0.757	0.546	0.343	0.544
NCI-H322M	0.651	0.584	0.57	0.802	0.342	0.566	0.548	0.48	0.268	0.479	0.94	0.895	0.618	0.317	0.355	0.534	0.552	0.578	0.393	0.389
NCI-H358	0.541	0.441	0.413	0.273	0.192	0.591	0.433	0.384	0.245	0.255	0.292	0.286	0.305	0.322	0.167	0.621	0.939	0.69	0.194	0.592
NCI-H460	1.08	0.679	0.178	0.0562	0.0153	0.649	0.756	0.301	0.0985	0.0595	0.0305	0.0328	0.0332	0.0223	0.0144	0.573	0.541		0.0247	0.684
NCI-H596	0.989	1.22	0.823	1.07	0.474	0.906	0.959	0.877	0.519	0.551	1.01	1	0.508	0.306	0.275	0.711	0.737	0.775	0.591	0.715

Cell Line	relative viability (IMD-0354 + Lapatinib; first compound 0.04 µM)	relative viability (IMD-0354 + Lapatinib; first compound 0.1265 µM)	relative viability (IMD-0354 + Lapatinib; first compound 0.4 µM)	relative viability (IMD-0354 + Lapatinib; first compound 1.265 µM)	relative viability (IMD-0354 + Lapatinib; first compound 4 µM)	relative viability (IMD-0354 + AZD7762; first compound 0.04 µM)	relative viability (IMD-0354 + AZD7762; first compound 0.1265 µM)	relative viability (IMD-0354 + AZD7762; first compound 0.4 µM)	relative viability (IMD-0354 + AZD7762; first compound 1.265 µM)	relative viability (IMD-0354 + AZD7762; first compound 4 µM)	relative viability (IMD-0354 + Luminespib; first compound 0.04 µM)	relative viability (IMD-0354 + Luminespib; first compound 0.1265 µM)	relative viability (IMD-0354 + Luminespib; first compound 0.4 µM)	relative viability (IMD-0354 + Luminespib; first compound 1.265 µM)	relative viability (IMD-0354 + Luminespib; first compound 4 µM)	relative viability (CX-5461 + OSI-027; first compound 0.01 µM)	relative viability (CX-5461 + OSI-027; first compound 0.03162 µM)	relative viability (CX-5461 + OSI-027; first compound 0.1 µM)	relative viability (CX-5461 + OSI-027; first compound 1 µM)	relative viability (CX-5461 + OSI-027; first compound 0.3162 µM)
NCI-H647	1.63	0.859	0.495	0.193	0.0984	0.707	0.531	0.309	0.0742	0.159	0.303	0.261	0.166	0.111	0.0881	0.742	0.565	0.669	0.467	0.566
NCI-H650	1.11	0.864	0.614	0.451	0.22	0.926	1.01	0.822	0.566	0.174	0.791	0.873	0.59	0.381	0.167	0.578	0.558	0.483	0.352	0.536
NCI-H727	0.801	0.84	0.55	0.439	0.325	0.589	0.727	0.484	0.44	0.398	0.344	0.295	0.371	0.191	0.302	0.59	0.866	0.622	0.584	0.58
NCI-H838	1.14	0.855	0.399	0.305	0.261	0.981	0.9	0.68	0.714	0.688	0.571	0.246	0.27	0.217	0.244	0.413	0.384	0.404	0.272	
NCI-H1355	1.27	1.16	0.829	0.213	0.21	0.813	0.914	0.622	0.494	0.23	0.769	0.585	0.567	0.333	0.32	0.438	0.428	0.456	0.321	0.267
NCI-H1395	1.11	1.28	0.821	0.292	0.364	0.394	0.427	0.383	0.319	0.384	0.73	0.586	0.675	0.362	0.314	0.639	0.625	0.63	0.515	0.475
NCI-H1437	0.86	0.69	0.317	0.122	0.194	1.12	1.09	0.755	0.247	0.297	1.21	0.899	0.45	0.191	0.202	0.912	0.869		0.662	0.841
NCI-H1651	0.904	0.803	0.402	0.136	0.131	0.468	0.504	0.422	0.161	0.14	0.984	0.557	0.289	0.247	0.153	0.61	0.62		0.131	0.458
NCI-H1666	0.631	0.617	0.452	0.176	0.167	0.777	0.957	0.689	0.623	0.467	1.06	1.06	0.963	0.499	0.369	0.894	0.875	0.664	0.636	0.756
NCI-H1734	1.23	1.07	0.493	0.232	0.218	0.573	0.565	0.417	0.198	0.152	0.201	0.181	0.2	0.147	0.143	0.586	0.646	0.706	0.445	0.499
NCI-H1755	1.31	1.1	0.598	0.303	0.197	0.412	0.546	0.344	0.365	0.274	0.321	0.515	0.312	0.456	0.289	0.732	0.736	0.713	0.655	0.646
NCI-H1792	0.827	0.967	0.833	0.479	0.299	0.896	0.517	0.551	0.17	0.0979	0.465	0.411	0.35	0.302	0.258	0.657	0.786	0.763	0.659	0.759
NCI-H1793	0.651	0.613	0.347	0.238	0.323	0.592	0.542	0.337	0.181	0.205	0.149	0.159	0.152	0.143	0.175	0.296	0.289	0.318	0.198	
NCI-H1915	0.869	0.941	0.605	0.761	0.192	0.666	0.694	0.58	0.507	0.149	0.609	0.665	0.296	0.355	0.226	0.664	0.692	0.601	0.605	0.599
NCI-H1944	0.699	0.862		0.922	0.171	0.433	0.541	0.488	0.321	0.156	0.727	0.818	0.669	0.634	0.17	0.49	0.446	0.377	0.259	0.252
NCI-H1975	1.13	0.875	0.575	0.194	0.185	0.781	0.771	0.655	0.724	0.266	0.24	0.197	0.183	0.153	0.162	0.842	0.735	0.661	0.329	0.865
